The text below walks through data of patent US7205417B2, “Spiro compounds” (Banyu Pharmaceutical Co., Ltd., priority 2001, dated 2007).

For the experiment, the target named is T1, human NPY Y5 receptor (Homo sapiens, UniProt Q15761).
T1 construct: expressed in transfected cells; host or cells: COS-7, CHO and LM(tk-) cells; vectors pcDNA3, pRc/RSV, pCI-neo; membrane preparation
T1 sequence (Q15761 1-445): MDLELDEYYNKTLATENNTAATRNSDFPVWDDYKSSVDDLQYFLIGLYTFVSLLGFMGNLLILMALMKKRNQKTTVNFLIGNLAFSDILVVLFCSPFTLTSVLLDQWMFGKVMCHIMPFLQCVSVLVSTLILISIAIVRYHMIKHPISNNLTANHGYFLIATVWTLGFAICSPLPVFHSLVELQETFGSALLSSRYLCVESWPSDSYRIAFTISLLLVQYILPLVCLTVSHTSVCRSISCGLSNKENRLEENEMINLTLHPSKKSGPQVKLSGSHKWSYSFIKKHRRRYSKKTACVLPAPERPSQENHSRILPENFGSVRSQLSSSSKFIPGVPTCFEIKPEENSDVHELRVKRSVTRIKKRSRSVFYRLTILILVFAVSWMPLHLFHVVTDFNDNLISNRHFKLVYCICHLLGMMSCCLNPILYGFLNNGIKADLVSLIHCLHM
Description: NPY binding inhibition test. Particulars: [125I]peptideYY binding to membrane sample from cells expressing NPY Y5 receptor, 25° C., 2 hours; read-out: NPY receptors binding inhibition IC50. The source says: Pharmacological Test (NPY Binding Inhibition Test)
A sequence coding for human NPY Y5 receptor (c.f. International patent publication number W096/16542) was cloned into expression vectors pcDNA3, pRc/RSV (made by Invitrogen Inc.) and pCI-neo (made by Promega Inc.). The expression vectors thus obtained were transfected to host cells COS-7, CHO and LM(tk-) (American Type Culture Collection) by cationic lipid method (Proceedings of the National Academy of Sciences of the United States of America, vol. 84: p. 7413(1987)) to give NPY Y5 receptor expression cells.
A membrane sample prepared from the cells which expressed NPY Y5 receptor was incubated together with a test compound and [^125I]peptideYY (made by NEN) (20,000 cpm) in an assay buffer (25 mM Tris buffer, pH 7.4, containing 10 mM magnesium chloride, 1 mM phenylmethylsulfonyl fluoride, 0.1% bacitracin and 0.5% bovine serum albumin) at 25° C. for 2 hours, then filtered through a glass filter GF/C and washed with 5 mM Tris buffer (pH7.4) containing 0.3% BSA. The radioactivity of the cake on the glass filter was measured. Non-specific binding was measured in the presence of 1 μM peptide YY, and 50% Inhibitory Concentration (IC50) of the test compound against specific peptideYY binding was determined (Endocrinology, vol. 131: p. 2090(1992)).
For `CS(=O)(=O)N1CC2(CCC(C(=O)NC3CCN(c4ccccc4)C3)CC2)c2ccccc21` [Example 41, Trans-1-methanesulfonyl-N-[(3S)-1-phenyl-3-pyrrolidinyl]spiro[indoline-3,1′-cyclohexane]-4′-carboxamide], the IC50 came out at 1.2 nM.

Take `CS(=O)(=O)N1CC2(CCC(C(=O)NC3CCN(c4cccc(F)c4)CC3)CC2)c2ccccc21` (stereo not drawn) [Example 36, Trans-N-[1-(3-fluorophenyl)-4-piperidyl]-1-methanesulfonyl-spiro[indoline-3,1′-cyclohexane]-4′-carboxamide]: the IC50 was 0.8 nM.

With `O=C1OC2(CCC(C(=O)NC3CCC(c4cccc(F)c4)CC3)CC2)c2ncccc21` (stereo not drawn) [Example 27, Trans-N-[trans-4-(3-fluorophenyl)cyclohexyl]-3-oxospiro[7-azaisobenzofuran-1(3H),1′-cyclohexane]-4′-carboxamide], the IC50 came to 3.6 nM.

Turning to `O=C1OC2(CCC(C(=O)NC3CCC(c4ccccc4)CC3)CC2)c2ccccc21` (stereo not drawn) [Example 1, trans-3′-oxo-N-(trans-4-phenylcyclohexyl)-spiro[cyclohexane-1,1′(3′H)-isobenzofuran]-4-carboxamide], the IC50 turned out to be 2.5 nM.

On to `CS(=O)(=O)N1CC2(CCC(C(=O)NC(Cc3ccncc3)C(=O)NCc3ccccc3)CC2)c2ccccc21` (stereo not drawn) [Example 46, Trans-N-[1-benzylcarbamoyl-2-(4-pyridyl)ethyl]-1-methylsulfonylspiro[indoline-3,1′-cyclohexane]-4′-carboxamide], for which the IC50 was determined as 2 nM.

As to `O=C1OC2(CCC(C(=O)NC(CNCc3ccccc3)Cc3ccccc3)CC2)c2ccccc21` (centres unmarked) [Example 32], the IC50 was 1.7 nM.

`CS(=O)(=O)N1CC2(CCC(C(=O)NC(CNCc3ccccc3)Cc3ccccc3)CC2)c2ccccc21` [Example 45, Trans-N-[(S)-1-benzyl-2-(benzylamino)ethyl]-1-methylsulfonylspiro[indoline-3,1′-cyclohexane]-4′-carboxamide]: the IC50 came out at 0.69 nM.

Take `O=C1OC2(CCC(C(=O)NC3CCN(c4ccccc4F)CC3)CC2)c2ccccc21` (stereo not drawn) [Example 5, Trans-N-[1-(2-fluorophenyl)-4-piperidyl]-3′-oxo-spiro[cyclohexane-1,1′(3′H)-isobenzofuran]-4-carboxamide]: the IC50 came out at 1.7 nM.
